# Measured values as given in patent EP4745135A1 (Gluetacs Therapeutics (Shanghai) Co., Ltd., priority 2023, dated 2025).
# Assays:
# [1] = target: T1, CK1α (Homo sapiens, UniProt P48729+Q96SW2); test: Western blot, degradation of substrate protein in hPBMCs; format: cell-based
# T1 construct: effects of the compounds of the present disclosure on the expression of target proteins in cells; endogenous in cells; host or cells: human PBMCs (Milecell Biotechnologies)
# [2] = target: T2, IKZF1 (Homo sapiens, UniProt Q13422+Q96SW2); test: as above; format: cell-based
# T2 construct: effects of the compounds of the present disclosure on the expression of target proteins in cells; endogenous in cells; host or cells: human PBMCs (Milecell Biotechnologies)
# T2 sequence (Q13422 whole entry): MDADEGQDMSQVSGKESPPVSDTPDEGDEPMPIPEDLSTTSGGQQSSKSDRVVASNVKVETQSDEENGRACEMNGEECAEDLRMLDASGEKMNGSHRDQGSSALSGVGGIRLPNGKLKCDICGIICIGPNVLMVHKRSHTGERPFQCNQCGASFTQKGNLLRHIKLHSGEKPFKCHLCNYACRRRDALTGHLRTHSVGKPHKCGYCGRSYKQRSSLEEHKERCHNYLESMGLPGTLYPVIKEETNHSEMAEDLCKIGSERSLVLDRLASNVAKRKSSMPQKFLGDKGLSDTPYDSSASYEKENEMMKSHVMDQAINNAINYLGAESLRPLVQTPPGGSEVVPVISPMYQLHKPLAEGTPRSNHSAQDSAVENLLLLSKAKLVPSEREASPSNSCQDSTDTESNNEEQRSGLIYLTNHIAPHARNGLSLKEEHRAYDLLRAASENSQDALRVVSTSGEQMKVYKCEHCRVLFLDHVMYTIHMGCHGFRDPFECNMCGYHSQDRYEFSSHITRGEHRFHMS
# T2 sequence (Q96SW2 whole entry): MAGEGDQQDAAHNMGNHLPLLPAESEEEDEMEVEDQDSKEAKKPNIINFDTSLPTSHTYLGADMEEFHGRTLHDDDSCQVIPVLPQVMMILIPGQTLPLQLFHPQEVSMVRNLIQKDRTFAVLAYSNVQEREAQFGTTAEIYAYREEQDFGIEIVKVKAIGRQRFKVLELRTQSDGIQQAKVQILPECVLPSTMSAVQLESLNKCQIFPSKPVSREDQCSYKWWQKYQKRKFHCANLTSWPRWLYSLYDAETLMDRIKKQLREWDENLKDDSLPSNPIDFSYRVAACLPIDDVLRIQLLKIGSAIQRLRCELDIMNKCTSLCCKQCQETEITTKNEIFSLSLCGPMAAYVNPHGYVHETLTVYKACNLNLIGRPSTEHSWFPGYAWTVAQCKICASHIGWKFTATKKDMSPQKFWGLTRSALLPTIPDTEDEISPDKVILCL
# T2 sequence (Q16531 whole entry partner): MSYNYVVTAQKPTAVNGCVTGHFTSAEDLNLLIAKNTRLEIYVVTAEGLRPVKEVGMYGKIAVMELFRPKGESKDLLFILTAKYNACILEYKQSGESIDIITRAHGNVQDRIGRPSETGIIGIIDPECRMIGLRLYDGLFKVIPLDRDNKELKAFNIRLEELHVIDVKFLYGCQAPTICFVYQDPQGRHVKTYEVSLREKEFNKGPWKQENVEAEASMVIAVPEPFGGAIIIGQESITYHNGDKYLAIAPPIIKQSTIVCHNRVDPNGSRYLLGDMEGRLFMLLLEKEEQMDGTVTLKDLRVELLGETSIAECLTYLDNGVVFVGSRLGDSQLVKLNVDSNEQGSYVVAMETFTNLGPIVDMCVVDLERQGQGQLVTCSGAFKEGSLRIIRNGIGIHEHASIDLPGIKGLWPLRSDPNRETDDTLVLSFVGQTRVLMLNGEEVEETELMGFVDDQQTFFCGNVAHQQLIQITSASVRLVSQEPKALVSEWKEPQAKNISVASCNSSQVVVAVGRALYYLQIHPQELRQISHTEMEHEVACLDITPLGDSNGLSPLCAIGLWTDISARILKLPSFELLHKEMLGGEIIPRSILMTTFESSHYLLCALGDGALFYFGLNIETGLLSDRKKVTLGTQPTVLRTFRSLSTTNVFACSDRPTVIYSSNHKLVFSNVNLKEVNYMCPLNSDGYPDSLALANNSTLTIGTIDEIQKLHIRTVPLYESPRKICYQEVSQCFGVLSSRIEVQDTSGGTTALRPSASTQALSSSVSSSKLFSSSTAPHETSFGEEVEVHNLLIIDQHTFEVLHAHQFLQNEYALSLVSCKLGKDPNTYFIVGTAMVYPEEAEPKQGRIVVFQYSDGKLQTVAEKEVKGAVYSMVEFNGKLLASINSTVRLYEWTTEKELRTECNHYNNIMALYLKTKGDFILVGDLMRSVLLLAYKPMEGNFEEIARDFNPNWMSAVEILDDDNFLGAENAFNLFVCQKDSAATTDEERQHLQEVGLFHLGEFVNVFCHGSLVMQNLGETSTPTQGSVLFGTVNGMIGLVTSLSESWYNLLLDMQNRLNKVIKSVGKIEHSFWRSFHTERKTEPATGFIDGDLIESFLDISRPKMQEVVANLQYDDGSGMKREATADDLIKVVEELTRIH
# [3] = target: T3, IKZF2 (Homo sapiens, UniProt Q96SW2+Q9UKS7); test: as above; format: cell-based
# T3 construct: effects of the compounds of the present disclosure on the expression of target proteins in cells; endogenous in cells; host or cells: human PBMCs (Milecell Biotechnologies)
# T3 sequence (Q9UKS7 whole entry): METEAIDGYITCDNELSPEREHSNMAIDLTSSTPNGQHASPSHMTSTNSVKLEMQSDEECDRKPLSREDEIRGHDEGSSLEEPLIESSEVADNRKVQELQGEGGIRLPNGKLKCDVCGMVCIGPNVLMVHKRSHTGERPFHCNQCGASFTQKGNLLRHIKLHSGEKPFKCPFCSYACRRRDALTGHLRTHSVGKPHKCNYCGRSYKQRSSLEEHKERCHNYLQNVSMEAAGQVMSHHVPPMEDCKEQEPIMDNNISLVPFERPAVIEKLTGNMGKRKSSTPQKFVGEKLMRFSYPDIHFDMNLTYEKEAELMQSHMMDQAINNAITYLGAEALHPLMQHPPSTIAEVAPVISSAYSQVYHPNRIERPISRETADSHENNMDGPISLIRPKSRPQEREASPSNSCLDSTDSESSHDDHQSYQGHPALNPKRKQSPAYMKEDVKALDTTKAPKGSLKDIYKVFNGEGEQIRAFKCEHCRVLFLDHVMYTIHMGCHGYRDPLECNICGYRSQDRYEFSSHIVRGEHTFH
# T3 sequence (Q96SW2 whole entry): as the sequence (Q96SW2 whole entry) above
# T3 sequence (Q16531 whole entry partner): as the sequence (Q16531 whole entry partner) above
# [4] = target: T4, IKZF3 (Homo sapiens, UniProt Q96SW2+Q9UKT9); test: as above; format: cell-based
# T4 construct: effects of the compounds of the present disclosure on the expression of target proteins in cells; endogenous in cells; host or cells: human PBMCs (Milecell Biotechnologies)
# T4 sequence (Q9UKT9 whole entry): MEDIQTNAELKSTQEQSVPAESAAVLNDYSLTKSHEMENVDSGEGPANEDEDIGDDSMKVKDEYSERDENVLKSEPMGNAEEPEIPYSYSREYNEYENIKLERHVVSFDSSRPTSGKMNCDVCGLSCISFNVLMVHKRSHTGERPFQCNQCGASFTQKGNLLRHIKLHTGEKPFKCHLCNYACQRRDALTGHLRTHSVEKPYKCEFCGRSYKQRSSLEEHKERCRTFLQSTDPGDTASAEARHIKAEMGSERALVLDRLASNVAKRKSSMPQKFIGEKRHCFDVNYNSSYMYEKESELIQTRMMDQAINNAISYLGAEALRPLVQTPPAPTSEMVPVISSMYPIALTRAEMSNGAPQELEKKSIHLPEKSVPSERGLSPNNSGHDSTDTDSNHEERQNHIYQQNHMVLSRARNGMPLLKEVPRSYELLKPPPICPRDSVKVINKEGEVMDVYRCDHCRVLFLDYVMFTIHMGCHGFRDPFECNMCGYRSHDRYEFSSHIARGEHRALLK
# T4 sequence (Q96SW2 whole entry): as the sequence (Q96SW2 whole entry) above
# T4 sequence (Q16531 whole entry partner): as the sequence (Q16531 whole entry partner) above
# [5] = target: T5, WEE1 (Homo sapiens, UniProt P30291+Q96SW2); test: as above; format: cell-based
# T5 construct: effects of the compounds of the present disclosure on the expression of target proteins in cells; endogenous in cells; host or cells: human PBMCs (Milecell Biotechnologies)
# T5 sequence (P30291 whole entry): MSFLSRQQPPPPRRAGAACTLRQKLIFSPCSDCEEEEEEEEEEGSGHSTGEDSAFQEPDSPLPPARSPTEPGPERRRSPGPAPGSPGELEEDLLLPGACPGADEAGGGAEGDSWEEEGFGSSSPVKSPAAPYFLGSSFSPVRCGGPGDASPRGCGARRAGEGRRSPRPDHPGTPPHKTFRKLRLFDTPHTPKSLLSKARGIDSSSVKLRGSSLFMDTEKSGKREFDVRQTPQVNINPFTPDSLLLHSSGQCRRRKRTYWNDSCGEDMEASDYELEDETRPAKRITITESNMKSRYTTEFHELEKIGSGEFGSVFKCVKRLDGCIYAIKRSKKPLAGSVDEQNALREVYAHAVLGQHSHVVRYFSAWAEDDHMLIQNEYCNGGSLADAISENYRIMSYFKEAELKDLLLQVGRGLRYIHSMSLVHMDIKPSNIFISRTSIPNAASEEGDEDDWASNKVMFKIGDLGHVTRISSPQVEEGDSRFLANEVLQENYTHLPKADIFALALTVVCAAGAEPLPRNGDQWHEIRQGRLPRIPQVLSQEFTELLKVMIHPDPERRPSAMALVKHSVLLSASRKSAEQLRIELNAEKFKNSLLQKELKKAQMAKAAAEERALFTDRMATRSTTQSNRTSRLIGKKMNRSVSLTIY
# T5 sequence (Q96SW2 whole entry): as the sequence (Q96SW2 whole entry) above
# T5 sequence (Q16531 whole entry partner): as the sequence (Q16531 whole entry partner) above
# [6] = tested on: GSPT1; test: as above; format: cell-based, Human
# [7] = target: T6, human Cereblon WT GST-tagged protein (Homo sapiens, UniProt Q96SW2); test: CRBN-binding affinity, HTRF (CEREBLON BINDING kit); conditions: for inhibition at 0.5 µM: read-out: Inhibition Rate at 0.5 µM (%); for inhibition at 2 µM: read-out: Inhibition Rate at 2 µM (%)
# T6 construct: purchased CISBIO 64BDCRBNPEH
# T6 sequence (Q96SW2 whole entry): as the sequence (Q96SW2 whole entry) above
# [8] = tested on: Human multiple myeloma cell (MM.1S); test: Tumor cell proliferation inhibition (CellTiter-Meiluncell luminescent cell viability assay); conditions: Homo sapiens, MM1.S, 96 h; for inhibition at 0.01 µM: read-out: Inhibition Rate at 10 nM (%); for inhibition at 0.5 µM: read-out: Inhibition Rate at 500 nM (%)
# Procedure: The tumor cells used herein were cultured in a cell culture medium listed in table 2 at 37°C in an incubator with 5% CO2. Prior to experimentation, all cell lines used were correctly identified by STR profiling, and tested negative for mycoplasma contamination using a mycoplasma detection kit through routine screenings.
# The IC50 values of the compounds of the present disclosure (including the compounds in Table 1 and Examples) were determined using the CellTiter-Meiluncell Luminescent Cell Viability Assay Kit from Dalian Meilun Biotech Co., Ltd. The detailed procedure is as follows: Tumor cells were seeded in 96-well cell culture plates at the densities specified in Table 3. On the following day, the test compounds of the present disclosure were subjected to serial dilution. The dilution can be performed according to one of the following two methods: • (1) The first dilution method: The test compounds of the present disclosure (including the compounds in Table 1 and Examples) were subjected to 5-fold serial dilutions starting from a highest concentration of 2000 µM, resulting in a total of 9 concentrations from high to low (2000, 400, 80, 16, 3.2, 0.64, 0.128, 0.0256, 0.00512 µM). Subsequently, 0.5 µL of the test compound dilution was transferred into the 96-well plate containing the cells, with each well containing 100 µL of cell culture medium. […] Into the 96-well plate, the diluted test compounds and corresponding detection reagents were added, resulting in final test compound concentrations of 500 nM and 10 nM, respectively. The experimental procedure is described below using the diluted 2 µM test compound as an example.
# 0.5 µL of the aforementioned diluted compound of the present disclosure (including the compounds in Table 1 and Examples) was added to the seeded cells in 100 µL of medium, yielding a final test compound concentration of 10 nM. After the cells were treated with the compounds of the present disclosure for a specified period, the cell viability assay reagent was added to the culture medium according to the kit's instructions to determine cell viability. […] All controls were treated using the same procedure as the compounds of the present disclosure. The growth inhibition curves for the compounds of the present disclosure were plotted using Prism GraphPad software, and the IC50 values were calculated therefrom.
# [9] = Western blot, 24 hours of compound treatment, compounds tested at 50 nM and 500 nM (concentration for the table not stated)
# [10] = 24 hours treatment, compounds at 50 nM and 500 nM (concentration behind the class not stated)
# T1 sequence (P48729 whole entry): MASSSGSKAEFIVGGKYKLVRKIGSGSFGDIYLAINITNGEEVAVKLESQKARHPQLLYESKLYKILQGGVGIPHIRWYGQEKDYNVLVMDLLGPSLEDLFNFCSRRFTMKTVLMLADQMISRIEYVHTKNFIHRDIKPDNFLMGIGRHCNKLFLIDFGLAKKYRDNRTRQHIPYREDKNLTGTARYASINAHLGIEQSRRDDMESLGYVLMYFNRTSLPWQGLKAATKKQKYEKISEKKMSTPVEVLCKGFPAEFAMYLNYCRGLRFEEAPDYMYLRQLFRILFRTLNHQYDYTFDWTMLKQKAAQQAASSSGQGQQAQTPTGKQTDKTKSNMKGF
# T1 sequence (Q96SW2 whole entry): as the sequence (Q96SW2 whole entry) above
# T1 sequence (Q16531 whole entry partner): as the sequence (Q16531 whole entry partner) above
inhibition at 0.5 µM [7] [%],inhibition at 2 µM [7] [%],Compound,"CK1α substrate protein remaining % [1, 9]","IKZF 1 substrate protein remaining % [2, 9]","IKZF2 substrate protein remaining % [3, 9]","IKZF3 substrate protein remaining % [4, 9]","Wee1 substrate protein remaining % [5, 9]","GSPT1 substrate protein remaining % [6, 9]",inhibition at 0.01 µM [8] [%],inhibition at 0.5 µM [8] [%],"CK1α substrate protein remaining % [1, 10]","IKZF 1 substrate protein remaining % [2, 10]","IKZF2 substrate protein remaining % [3, 10]","IKZF3 substrate protein remaining % [4, 10]","Wee1 substrate protein remaining % [5, 10]","GSPT1 substrate protein remaining % [6, 10]"
40 to 53,80 to 100,"O=C1CCC(N2Cc3cc(CN4CCC(c5ccc(Cl)cc5)CC4)ccc3C2=S)C(=O)N1 (stereo not shown) [GT-08619, 3-(5-((4-(4-chlorophenyl)piperidin-1-yl)methyl)-1-thioxoisoindolin-2-yl)piperidine-2,6-dione]",B (80%< substrate protein remaining %≤ 100%),B (80%< substrate protein remaining %≤ 100%),B (80%< substrate protein remaining %≤ 100%),B (80%< substrate protein remaining %≤ 100%),B (80%< substrate protein remaining %≤ 100%),A (0% ≤ substrate protein remaining % ≤ 80%),20 to 30,40 to 50,–,–,–,–,–,–
40 to 53,80 to 100,"O=C1CCC(N2Cc3cc(CN4CCC(c5cccc(C(F)(F)F)c5)CC4)ccc3C2=S)C(=O)N1 (stereo not shown) [GT-08623, 3-(1-thioxo-5-((4-(3-(trifluoromethyl)phenyl)piperidin-1-yl)methyl)isoindolin-2-yl)piperidine-2,6-dione]",B (80%< substrate protein remaining %≤ 100%),B (80%< substrate protein remaining %≤ 100%),A (0% ≤ substrate protein remaining % ≤ 80%),B (80%< substrate protein remaining %≤ 100%),B (80%< substrate protein remaining %≤ 100%),B (80%< substrate protein remaining %≤ 100%),30 to 40,40 to 50,–,–,–,–,–,–
60 to 80,80 to 100,"O=C1CCC(N2Cc3c(CN4CCN(c5cc(Cl)ccn5)CC4)cccc3C2=S)C(=O)N1 (stereo not shown) [GT-08695, 3-(4-((4-(4-chloropyridin-2-yl)piperazin-1-yl)methyl)-1-thioxoisoindolin-2-yl)piperidine-2,6-dione]",B (80%< substrate protein remaining %≤ 100%),B (80%< substrate protein remaining %≤ 100%),B (80%< substrate protein remaining %≤ 100%),B (80%< substrate protein remaining %≤ 100%),A (0% ≤ substrate protein remaining % ≤ 80%),B (80%< substrate protein remaining %≤ 100%),20 to 30,40 to 50,–,–,–,–,–,–
60 to 80,80 to 100,"Cc1cc2c(C3=CCN(Cc4cccc5c4CN(C4CCC(=O)NC4=O)C5=S)CC3)ncnc2s1 (stereo not shown) [GT-08947, 3-(4-((4-(6-methylthieno[2,3-d]pyrimidin-4-yl)-3,6-dihydropyridin-1(2H)-yl)methyl)-1-thioxoisoindolin-2-yl)piperidine-2,6-dione]",–,–,–,–,–,–,30 to 40,40 to 50,B (80%< substrate protein remaining %≤ 100%),B (80%< substrate protein remaining %≤ 100%),B (80%< substrate protein remaining %≤ 100%),B (80%< substrate protein remaining %≤ 100%),A (0% ≤ substrate protein remaining % ≤ 80%),B (80%< substrate protein remaining %≤ 100%)
